Measurements reported in patent publication US20260345555A1, “Compositions and Methods for Protecting Salivary Glands from Off-Target Radiation Damage” (University of Rochester, priority 2022, published 2026).
Where a name gives a salt, the structure may show the parent alone. Read-outs that look alike come from different tables or passages of the source.

Tests used:
[1] = system: senescence-associated β-galactosidase in salivary gland cell clusters (SGm); assay: Cellular senescence assay (SPiDER-βGal) in salivary gland tissue chip, 5 days post-radiation (15 Gy); also second screen of library hits at 100 μM; assay type: cell-based, mouse; settings: for Senescence normalized mean intensity: second screen of library hits at 100 μM, 5 days post-radiation, only drugs nonsignificant compared to 0 Gy in the glutathione assay; on Senescence (radioprotection): key: +: radioprotection; ~: partial radioprotection; —: no radioprotection
From the text: (§1) The chip platform consists of an array of near-spherical microbubble (MB) cavities formed in poly(dimethylsiloxane) (PDMS). Each chip, containing ~50 MBs, affixed within wells of a 96-well plate (FIG. 1C). Primary salivary gland cell clusters (FIG. 1A), suspended in a poly(ethylene glycol) (PEG) hydrogel precursor and MMP-degradable peptide crosslinker solution together with the photoinitiator LAP, were applied to the chip allowing the clusters to deposit into the MBs (FIG. 1D). In situ polymerization of the hydrogel was achieved using long-wave, low intensity UV light. Over time, the cell clusters aggregate and proliferate to form SGm (FIG. 1C).
For senescence, a protocol similar to the glutathione assay was followed to determine the optimal time point post-radiation for detecting a change in senescence between 0 Gy and 15 Gy, as measured by senescence-associated β-galactosidase activity.
The glutathione and senescence assays were used to screen a library of FDA-approved drugs (Selleck Chemicals) at 100 μM. Drugs were first screened using the glutathione assay according to the timeline depicted in FIG. 2A. […] Hits with the glutathione assay were then tested with the senescence assay and considered a “double hit” if senescence levels were statistically similar to levels at 0 Gy (FIG. 4, black circles).
Mice were euthanized and the submandibular glands (SMG) were removed and chopped with a razor blade for 5 min. […] Cells were centrifuged, then resuspended in HBSS with 15 mM HEPES and passed through 100 μm and 20 μm mesh filters to isolate clusters between 20-100 μm. […] The isolated clusters were combined with hydrogel precursor solution and seeded in MB array-based chips as described below.
The cell/gel precursor solution (25 μL for 48 well; 20 μL for 96 well) was pipetted onto the MB chips and incubated for 30 min, pipetting every 10 min to redisperse cells that had settled onto the surface of the chip.
A cellular senescence assay for the chips was developed by adapting the Cellular Senescence Detection Kit—SPiDER-βGal (Dojindo Molecular Technologies, Inc. SG04). Bafilomycin A1 and SPiDER-βGal stock solutions were prepared in DMSO per manufacturer directions. The assay was performed by first incubating the chips with bafilomycin A1 (1:1000 dilution in media) for 1 hr at 37 °C. […] Chips were washed twice with media and imaged using a fluorescence microscope with a Texas Red filter (Excitation: 580 nm; Emission: 604 nm).
For radioprotection experiments, SGm were cultured in MB-hydrogel chips for 4 days, then drugs were added to the chips 30 min prior to irradiation and washed out with media 30 min post-radiation treatment. […] The glutathione and senescence assays were performed at 4- and 5-days post-radiation. For assay validation experiments, at least 3 chips (N=3) were used for each drug, corresponding to >100 MBs (n>100); these values are listed in the figure description for each experiment. Mean, standard deviation, and statistics were calculated based on the number of MBs (n).
For screening of the Selleck Chemicals compound library, the same treatment scheme was used, with drugs administered at 100 μM. One MB chip (N=1) was used per compound, with ~40-50 MBs per chip […]; statistics were calculated using the number of MBs (n) and compared to 0 Gy controls.
For both the glutathione and cellular senescence assays, images were quantified in ImageJ.

[2] = system: Reduced glutathione in salivary gland cell clusters (SGm); assay: Glutathione assay in salivary gland tissue chip, 4 days post-radiation (15 Gy); also first screen of Selleck library at 100 μM; assay type: cell-based, mouse; settings: for Glutathione normalized mean intensity: first screen of Selleck library at 100 μM; for concentration range of radioprotection, glutathione assay: dose response; for Estimated EC50, Glutathione: nonlinear fit in Prism of dose response curves; for hit in the drug screen: glutathione assay first screen, 100 μM; on Glutathione (radioprotection): key: +: radioprotection; ~: partial radioprotection; —: no radioprotection
From the text: as §1, with “A salivary gland tissue chip was leveraged for high-content drug screening to identify novel radioprotective compounds (Song Y et al., Commun Biol., 2021, 4). The” for “The”
The glutathione assay was used to measure glutathione levels at various time points post-radiation to determine the optimal time point for detecting differences between 0 Gy and 15 Gy. Based on the data, the greatest signal separation was measured at 4 days post-irradiation (FIG. 9). This timepoint is similar to previous reports on decreases in glutathione post-radiation and was used for all experiments moving forward (Meeks L et al., Physiological Genomics, 2021, 53: 85-98).
The dose response to WR-1065 was examined to determine effective concentrations of WR-1065 to prevent the reduction of glutathione levels post-radiation. A SGm tissue chip was cultured for 4 days to allow spheres to form. The chip was then treated with WR-1065 30 minutes before and during radiation, followed by drug wash out with media 30 minutes post-radiation (FIG. 2A). This dosing scheme is consistent with the use of Amifostine clinically and with previous work. The glutathione assay was performed at 4 days post-radiation (FIG. 2A). […] Moreover, it is clinically relevant as 15-30 minutes before radiation, patients are administered Amifostine intravenously at 200 mg/m (Escobar A et al., IntechOpen, 2019, pp. 15-37; Eisbruch A, J Clin Oncol, 2011, 29: 119-121; Bardet, E. et al. Semin Oncol, 2002, 29, 57-60). Assuming an average adult body surface area of 17,000 cm^2 and a blood volume of 1.35 gallons (5.1 liters), Amifostine is administered at 300 μM (Mosteller, R. D. N Engl J Med 317, 1098 (1987)).
The glutathione and senescence assays were used to screen a library of FDA-approved drugs (Selleck Chemicals) at 100 μM. Drugs were first screened using the glutathione assay according to the timeline depicted in FIG. 2A. Any compound resulting in statistically similar glutathione levels compared to 0 Gy control was considered a hit (FIG. 4, grey circles). Hits with the glutathione assay were then tested with the senescence assay and considered a “double hit” if senescence levels were statistically similar to levels at 0 Gy (FIG. 4, black circles). […] While this hit rate is higher than many other drug screening reports (0.1-0.3%), this may be due to the statistical rigor afforded by the tissue chip format (Blanchard, C et al., Antimicrob Agents Chemother 2016, 60, 862-872; Colquhoun, J. M et al., Antibiotics (Basel) 2019, 8, 48). Additionally, phenotypic screens generally have higher hit rates than target-based screens (>1%) (Moffat, J. G et al., Nature Reviews Drug Discovery 2017, 16, 531-543; Rottman, M et al., Science 2010, 329, 1175-1180).
Mice were euthanized and the submandibular glands (SMG) were removed and chopped with a razor blade for 5 min. The tissue was then incubated in Hank's buffered salt solution (HBSS) containing 15 mM HEPES, 50 U/mL collagenase type II (Thermo Fischer 17101015), and 100 U/mL hyaluronidase (Sigma Aldrich H3506) at 37 °C for 30 min. Cells were centrifuged, then resuspended in HBSS with 15 mM HEPES and passed through 100 μm and 20 μm mesh filters to isolate clusters between 20-100 μm. The digestion protocol produces cell cluster sizes evenly distributed between 20 to 100 μm (Song, Y et al., Advanced Healthcare Materials). […]

[3] = system: lymphocyte cells; settings: viability of lymphocytes as primary readout; cited from earlier work
[4] = Mus musculus, light or radiation study, 120 h, read-out: reduction in senescence

Molecule	Senescence normalized mean intensity ([1]; 15 Gy)	Glutathione normalized mean intensity ([2]; 15 Gy, 4 days post-radiation)	other results
CCOC(=O)C(C)(C)Oc1ccc(Cl)cc1 [Clofibrate (Atromid-S)]	1.714	1.009	–
CC/C(=C(/CC)c1ccc(O)cc1)c1ccc(O)cc1 [Diethylstilbestrol (Stilbestrol)]	0.8812	0.8894	concentration range of radioprotection, senescence assay ([1]; dose response, 15 Gy): 50 to 100 µM; Estimated EC50, Senescence ([1]; nonlinear fit in Prism of dose response curves, 15 Gy): 37700 nM; concentration range of radioprotection, glutathione assay ([2]; 15 Gy): 10 to 100 µM; Estimated EC50, Glutathione ([2]; 15 Gy): 700 nM
COC(=O)Nc1nc2cc(C(=O)c3ccc(F)cc3)ccc2[nH]1 [Flubendazole (Flutelmium)]	1.444	1.065	–
Meropenem	–	–	radioprotection in dose response, senescence assay ([1]; dose response, 15 Gy): only partial protection; double hit in the drug screen ([1]; glutathione and senescence assays, 100 μM, statistically similar to 0 Gy): double hits; concentration range of radioprotection, glutathione assay ([2]; 15 Gy): 0.1 to 100 µM; Estimated EC50, Glutathione ([2]; 15 Gy): 100 nM
O=NN(CCCl)C(=O)NC1CCCCC1 [Lomustine (CeeNU)]	1.023	0.9042	–
CC1COc2c(N3CCN(C)CC3)c(F)cc3c(=O)c(C(=O)O)cn1c23 (centres unmarked) [ofloxacin]	–	–	hit in the drug screen [2]: not hits; radioprotection of lymphocytes [3]: radioprotectors
CC1(C)CC(O)CC(C)(C)N1[O] [Tempol, 4-hydroxy-TEMPO]	–	–	Senescence (radioprotection) [1]: +; inhibition at 1000 µM [1, 4]: 75%; inhibition at 4000 µM [1, 4]: 91%; Glutathione (radioprotection) [2]: +; prevention of radiation-induced reduction of glutathione levels [2]: strong radioprotection
C[C@]12C=CC(=O)C=C1CC[C@H]1[C@@H]3C[C@@H](O)[C@](O)(C(=O)CO)[C@@]3(C)C[C@H](O)[C@@]12F [Triamcinolone (Aristocort)]	0.9883	1.061	–
CC(=O)OCC[N+](C)(C)C.[Cl-] [Acetylcholine chloride]	1.205	1.04	–
COc1c(N2CCNC(C)C2)c(F)cc2c(=O)c(C(=O)O)cn(C3CC3)c12 (centres unmarked) [gatifloxacin]	–	–	hit in the drug screen [2]: not hits; radioprotection of lymphocytes [3]: radioprotectors
COc1cc(/C=C/C(=O)CC(=O)/C=C/c2ccc(O)c(OC)c2)ccc1O [Curcumin]	0.8098	0.9059	–
Cc1cnc(C(=O)O)c[n+]1[O-] [Acipimox]	1.379	1.03	–
COc1c(N2C[C@@H]3CCCN[C@@H]3C2)c(F)cc2c(=O)c(C(=O)O)cn(C3CC3)c12 [moxifloxacin]	–	–	radioprotection of lymphocytes [3]: radioprotectors
O=C(Nc1cccc2c(=O)cc(-c3nnn[nH]3)oc12)c1ccc(OCCCCc2ccccc2)cc1 [Pranlukast]	1.394	0.9284	–
CN(C)CCC(c1ccc(Cl)cc1)c1ccccn1 (centres unmarked) [Chlorpheniramine Maleate]	1.308	1.145	–
CC(C(=O)[O-])c1cccc(Oc2ccccc2)c1.CC(C(=O)[O-])c1cccc(Oc2ccccc2)c1.[Ca+2] (centres unmarked) [Fenoprofen calcium]	1.472	0.9731	–
C[C@H](CCC(=O)O)[C@H]1CC[C@H]2[C@@H]3[C@H](O)C[C@@H]4C[C@H](O)CC[C@]4(C)[C@H]3CC[C@]12C [Chenodeoxycholic acid]	1.45	1.11	–
COC(=O)C1=C(C)NC(C)=C(C(=O)OC)C1c1ccccc1[N+](=O)[O-] [Nifedipine (Adalat)]	0.9725	0.9216	–
CC(=O)N[C@@H](CS)C(=O)O [N-acetylcysteine]	–	–	protection against radiation-induced senescence ([1]; 10 mM): protective; inhibition at 1000 µM ([1]; Mus musculus, light or radiation study, 120 h, 1 mM, versus untreated, irradiated controls, read-out: reduction in senescence): 83%; inhibition at 4000 µM ([1]; Mus musculus, light or radiation study, 120 h, 4 mM, versus untreated, irradiated controls, read-out: reduction in senescence): 57%; inhibition at 10000 µM ([1]; Mus musculus, light or radiation study, 120 h, 10 mM, versus untreated, irradiated controls, read-out: reduction in senescence): 82%; prevention of radiation-induced reduction of glutathione levels ([2]; 1 mM, 15 Gy, 4 days post-radiation): no improvement in glutathione levels; prevention of radiation-induced reduction of glutathione levels ([2]; 4 mM, 15 Gy, 4 days post-radiation): no improvement in glutathione levels; radioprotection using the glutathione assay ([2]; 10 mM): partial radioprotection; glutathione levels rescued ([2]; 10 mM, 15 Gy): 56%
COc1ccccc1OCCNCC(O)COc1cccc2[nH]c3ccccc3c12 (centres unmarked) [Carvedilol]	1.255	0.9878	–
NC(N)=NC(=O)c1nc(Cl)c(N)nc1N [Amiloride hydrochloride (Midamor)]	1.487	1.018	–
